The record followed here is article PMC10060569 (Frontiers in Pharmacology, 2023).

Molecules are shown by their SMILES.

For the assay, the target named is T1, S15V-hP2X3R (Homo sapiens, UniProt P56373, S15V).
T1 construct: expressed in transfected cells; host or cells: Xenopus laevis oocytes (cRNA injection)
T1 sequence (P56373 1-397 S15V): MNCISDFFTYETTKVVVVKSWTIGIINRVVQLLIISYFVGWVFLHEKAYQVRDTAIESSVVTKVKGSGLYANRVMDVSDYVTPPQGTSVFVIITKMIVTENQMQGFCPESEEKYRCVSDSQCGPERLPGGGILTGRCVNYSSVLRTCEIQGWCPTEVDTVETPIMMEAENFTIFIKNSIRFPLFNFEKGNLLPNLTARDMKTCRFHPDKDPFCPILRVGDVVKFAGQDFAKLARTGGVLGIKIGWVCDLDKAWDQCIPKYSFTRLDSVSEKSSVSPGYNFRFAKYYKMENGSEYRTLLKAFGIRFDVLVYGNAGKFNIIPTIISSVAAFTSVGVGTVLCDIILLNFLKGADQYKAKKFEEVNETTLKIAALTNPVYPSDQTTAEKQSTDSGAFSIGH
Briefly: TEVC of ATP-induced currents, S15V-hP2X3R expressed in X. laevis oocytes (peak current protocol). Format: cell-based. The note with it: for IC50: 30-s preincubation of antagonist, X. laevis oocytes, −60 mV, geometric mean. An excerpt: Oocyte expression plasmids encoding the wild-type (wt) and N-terminally His-tagged (His-) fusion constructs of the hP2X2R, hP2X3R, hP2X4R, and hP2X7R, and the mutant His-^20RMVL^23KVIV^23S^26N-hP2X1R, S^15V-rP2X3R, and His-S^15V-hP2X3R were the same as used in previous research ([Hausmann et al., 2006]; [Wolf et al., 2011]; [Hausmann et al., 2014]; [Obrecht et al., 2019]). In most cases, the N-terminal His-tagged variants of P2XRs were used here and in the previous studies to allow biochemical analyses on affinity-purified proteins using the same constructs. Although this was not required for the present study, it allows for better comparability with our previous studies. Capped cRNAs of different P2XRs were already available in the research group or were synthesized as previously described ([Schmalzing et al., 1991]; [Stolz et al., 2015]). cRNA was injected into collagenase-defolliculated X. laevis oocytes in aliquots of 41 nl or 23 nl (see Supplementary Table S1 for the amount of cRNA used for expression of the indicated P2XR) using a Nanoliter 2000 injector (World Precision Instruments, Sarasota, United States of America) as described previously ([Hausmann et al., 2014]; [Stolz et al., 2015]; [Obrecht et al., 2019]). To express the heteromeric hP2X2/3 receptor, cRNAs encoding His-hP2X2R and wt-hP2X3R were coinjected at a ratio (w/w) of 1:6. Oocytes were stored at 19°C in an oocyte ringer solution (ORi^+) containing 90 mM NaCl, 1 mM KCl, 1 mM CaCl2, 1 mM MgCl2, and 10 mM HEPES (Carl Roth, Karlsruhe, Germany) adjusted to pH 7.4 with NaOH and supplemented with 50 μg/ml gentamicin (AppliChem, Darmstadt, Germany). The procedures followed for the maintenance of and the surgical treatment for X. laevis adults were approved by the governmental animal care and use committee of the State Agency for Nature, Environment, and Consumer Protection (LANUV, Recklinghausen, Germany; reference no. 81-02.04.2019. A355), in compliance with Directive 2010/63/EU of the European Parliament and of the Council on the protection of animals used for scientific purpose.
Ion currents mediated by P2X receptors were evoked by the indicated concentration of ATP or α,β-meATP and were recorded 1 or 2 days after cRNA injection at ambient temperature at a holding potential of −60 mV by two-electrode voltage clamp (TEVC) as previously described ([Hausmann et al., 2006]). Calcium-free ORi^− solution (90 mM NaCl, 1 mM KCl, 2 mM MgCl2, 10 mM HEPES, pH 7.4) was used to avoid bias due to calcium-activated chloride channels (CaCC) endogenously expressed in X. laevis oocytes ([Miledi, 1982]; [Methfessel et al., 1986]). For recordings of wt-hP2X7R, the composition of the ORi^− solution was modified according to protocols described previously and contained 100 mM NaCl, 2.5 mM KCl, 1 mM MgCl2, 5 mM HEPES, pH 7.4 ([Klapperstück et al., 2000]). The oocytes were continuously superfused with ORi^− by gravity flow (5–10 ml/min). The agonists ATP or α,β-meATP and the investigated NSAIDs were diluted in ORi^− on the day of the recording. […] A peak current protocol (Supplementary Figure S1) was used to analyze fast- and intermediate desensitizing P2XR subtypes (P2X1R, P2X3R, and S^15V-P2X3R), and a steady-state protocol (Supplementary Figure S2) was used for slowly or partially desensitizing P2X subtypes (P2X2R, P2X2/3R, and P2X4R). For recordings of P2X7R, a modified steady-state protocol was used ([Hausmann et al., 2006]). The application of different bath solutions was controlled by computer-operated magnetic valves controlled by the CellWorks E 5.5.1 software (npi electronic, Tamm, Germany).
Antagonist concentration–response data and IC50 values were calculated by normalizing ATP-induced responses to the control responses (recorded in the presence and absence of the antagonist, respectively). […]

As usually defined, the IC50 is the concentration that gives 50% inhibition. High values mean lower potency, low ones higher potency. The inhibition is the relative decrease from the control value, in per cent. For the setting “1 µM ATP”, `Cc1c(Nc2ncccc2C(=O)O)cccc1C(F)(F)F` [Flunixin, flunixin] returned an IC50 of 32.4 µM. Besides, under “1 mM antagonist, 1 µM ATP, mean ± SEM, read-out: Max. inhibition at 1 mM”, the inhibition at 1000 µM was 53%. Moreover, the “reversibility of the inhibitory effect by washout” value (subsequent control current after washout) is on record as “not reversible”.
`CC(C)Cc1ccc(C(C)C(=O)O)cc1` (stereo not drawn) [Ibuprofen, ibuprofen]: under “1 µM ATP”, the IC50 was over 300 µM and the “reduction of ATP-induced current amplitude at 100 µM antagonist” value was 15%–18%.
Consider `Cc1ccc(Cl)c(Nc2ccccc2C(=O)O)c1Cl` [Meclofenamic acid, meclofenamic acid], for which, for the setting “1 µM ATP”, the IC50 was over 300 µM and the “reduction of ATP-induced current amplitude at 100 µM antagonist” value is 15%–18%.
In the same order, the values of `COc1ccc2cc([C@H](C)C(=O)O)ccc2c1` [Naproxen, naproxen] are over 300 µM and 15%–18%.
